Target: MAPK14 (human) (UniProt Q16539)
Assay: Assessment of MAPK14 Kinase Activity

Sequence of MAPK14 (human) (Q16539 whole entry, looked up): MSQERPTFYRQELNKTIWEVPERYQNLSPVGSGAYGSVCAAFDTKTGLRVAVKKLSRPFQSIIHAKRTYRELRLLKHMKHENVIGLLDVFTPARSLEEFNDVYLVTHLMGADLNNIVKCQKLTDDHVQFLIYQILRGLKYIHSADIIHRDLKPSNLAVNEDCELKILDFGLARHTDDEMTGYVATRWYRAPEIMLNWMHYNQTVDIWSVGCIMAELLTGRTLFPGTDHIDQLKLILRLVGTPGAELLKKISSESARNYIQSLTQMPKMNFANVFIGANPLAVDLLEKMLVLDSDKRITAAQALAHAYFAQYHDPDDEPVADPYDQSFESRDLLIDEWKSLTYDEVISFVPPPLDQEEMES

SMILES	IC50 [nM]
Cc1nnc(CN2CCN(C(=O)c3cc(C(C)(C)C)sc3NC(=O)Nc3ccc(C)c(-c4ccncc4)c3)C(C)(C)C2=O)o1	< 100
CC(C)(C)c1cc(C(=O)N2CCNC(=O)C2(C)C)c(NC(=O)Nc2cccc(-c3cnco3)c2)s1	< 100
CC(=O)N1CCN(C(=O)c2cc(C(C)(C)C)sc2NC(=O)Nc2ccc(C)c(-c3cccnc3)c2)CC1	< 100
CC(C)(C)c1cc(C(=O)N2CCNC(=O)C2(C)C)c(NC(=O)Nc2cccc(-c3ccnc(F)c3)c2)s1	< 100
COCCOCC#Cc1cc(NC(=O)Nc2sc(C(C)(C)C)cc2C(=O)N2CCNC(=O)C2(C)C)ccc1C	< 100
CON(C)C(=O)c1ccc(-c2cc(NC(=O)Nc3sc(C(C)(C)C)cc3C(=O)N3CCN(C)C(=O)C3(C)C)ccc2C)cn1	< 100
Cc1ccc(NC(=O)Nc2sc(C(C)(C)C)cc2C(=O)N2CCNC(=O)C2(C)C)cc1C#CCOC1CCOCC1	< 100
Cc1cc(NC(=O)Nc2cc(C(C)(C)C)sc2C(=O)N2CCNC(=O)C2(C)C)cc(-c2ccc(N3CCOCC3)cn2)c1	< 100
Cc1ccc(NC(=O)Nc2sc(C(C)(C)C)cc2C(=O)N2CCN(C)C(=O)C2(C)C)cc1-c1ccc(N2CCN(C)CC2)nc1	< 100
Cc1ccc(NC(=O)Nc2cc(C(C)(C)C)oc2C(=O)N2CCN(C)C(=O)C2(C)C)cc1-c1ccc(CN2CCOCC2)cn1	< 100
Cc1ccc(NC(=O)Nc2sc(C(C)(C)C)cc2C(=O)N2CCNC(=O)C2(C)C)cc1N1C(=O)CN(C)C1=O	< 100
COCCNC(=O)c1ccc(-c2cc(NC(=O)Nc3sc(C(C)(C)C)cc3C(=O)N3CCN(C)C(=O)C3(C)C)ccc2C)cn1	< 100
Cc1ccc(NC(=O)Nc2sc(C(C)(C)C)cc2C(=O)N2CCN(C)C(=O)C2(C)C)cc1N1C(=O)CN(C)C1=O	< 100
COc1ccc(-c2cc(C)cc(NC(=O)Nc3sc(C(C)(C)C)cc3C(=O)N3CCNC(=O)C3(C)C)c2)cn1	< 100
Cc1ccc(NC(=O)Nc2sc(C(C)(C)C)cc2C(=O)N2CCN(C(=O)CN(C)C)CC2)cc1-c1cccnc1	100 to 1000
Cc1ccc(NC(=O)Nc2sc(C(C)(C)C)cc2C(=O)N2CCN(C)C(=O)C2(C)C)cc1-c1ccc(CN2CCOCC2)nc1	< 100
Cc1ccc(NC(=O)Nc2sc(C(C)(C)C)cc2C(=O)N2CCN(C)C(=O)C2(C)C)cc1-c1ccc(C(=O)N2CCOCC2)nc1	< 100
COc1ccc(-c2cc(NC(=O)Nc3cc(C(C)(C)C)sc3C(=O)N3CCN(C)C(=O)C3(C)C)cc(F)c2C)cn1	< 100
Cc1ccc(NC(=O)Nc2sc(C(C)(C)C)cc2C(=O)N2CCN(C)C(=O)C2(C)C)cc1-c1ccc(C[N+]2([O-])CCOCC2)nc1	< 100
Cc1ccc(NC(=O)Nc2sc(C(C)(C)C)cc2C(=O)N2CCN(C)C(=O)C2(C)C)cc1-c1ccc(CN2CCN(C)CC2)nc1	< 100
CC(C)(C)c1cc(C(=O)N2CCNC(=O)C2(C)C)c(NC(=O)Nc2cccc(-c3ccc(OCCCN4CCOCC4)nc3)c2)s1	< 100
CC(C)(C)c1cc(C(=O)N2CCNC(=O)C2(C)C)c(NC(=O)Nc2cccc(-c3ccc(OCCN4CCOCC4)nc3)c2)s1	< 100

Other lines, results leading:

IC50 [nM]	SMILES
< 100	Cc1ccc(NC(=O)Nc2cn(C(C)(C)C)nc2C(=O)N2CCNC(=O)C2(C)C)cc1-c1ccc(CN2CCOCC2)nc1
< 100	Cc1ccc(NC(=O)Nc2cn(C(C)(C)C)nc2C(=O)N2CCNC(=O)C2(C)C)cc1-c1ccc(C(C)C)nc1
< 100	Cc1ccc(NC(=O)Nc2cn(C(C)(C)C)nc2C(=O)N2CCNC(=O)C2(C)C)cc1-c1ccc(CN2CCOCC2)cn1
< 100	Cc1ccc(NC(=O)Nc2sc(C(C)(C)C)cc2C(=O)N2CCNC(=O)C2(C)C)cc1-c1ccc(OCCCN(C)C)nc1
< 100	Cc1ccc(NC(=O)Nc2sc(C(C)(C)C)cc2C(=O)N2CCNC(=O)C2(C)C)cc1-c1cccc[n+]1[O-]
< 100	Cc1ccc(-c2ccc(N3CCOCC3)cn2)cc1NC(=O)Nc1cc(C(C)(C)C)sc1C(=O)N1CCNC(=O)C1(C)C
< 100	CCc1ccc(-c2cc(NC(=O)Nc3sc(C(C)(C)C)cc3C(=O)N3CCNC(=O)C3(C)C)cc(F)c2C)cn1
< 100	CC(=O)c1ccc(-c2cc(NC(=O)Nc3sc(C(C)(C)C)cc3C(=O)N3CCNC(=O)C3(C)C)ccc2C)cn1
< 100	Cc1ccc(NC(=O)Nc2sc(C(C)(C)C)cc2C(=O)N2CCN(C)C(=O)C2(C)C)cc1-c1ccc(NS(C)(=O)=O)nc1
< 100	Cc1ccc(NC(=O)Nc2sc(C(C)(C)C)cc2C(=O)N2CCNC(=O)C2(C)C)cc1-c1ccc(OCCN2CCOCC2)nc1
< 100	Cc1ccc(NC(=O)Nc2sc(C(C)(C)C)cc2C(=O)N2CCNC(=O)C2(C)C)cc1-c1cccnc1
< 100	Cc1ccc(NC(=O)Nc2sc(C(C)(C)C)cc2C(=O)N2CCN(C)C(=O)C2(C)C)cc1-c1ccc(C(C)(C)O)nc1
< 100	Cc1ccc(NC(=O)Nc2sc(C(C)(C)C)cc2C(=O)N2CCNC(=O)C2(C)C)cc1-c1ccc(C(C)O)nc1 (centres undefined)
< 100	CCc1ccc(-c2cc(NC(=O)Nc3sc(C(C)(C)C)cc3C(=O)N3CCN(C)C(=O)C3(C)C)ccc2C)cn1
< 100	COc1ccc(-c2cc(NC(=O)Nc3sc(C(C)(C)C)cc3C(=O)N3CCN(C)C(=O)C3(C)C)ccc2C)cn1
< 100	Cc1ccc(NC(=O)Nc2sc(C(C)(C)C)cc2C(=O)N2CCNC(=O)C2(C)C)cc1-c1ccc(F)nc1

IC50 [nM]	SMILES
< 100	Cc1nnc(-c2ccc(-c3cc(NC(=O)Nc4cc(C(C)(C)C)sc4C(=O)N4CCN(C)C(=O)C4(C)C)ccc3C)cn2)o1
< 100	Cc1ccc(NC(=O)Nc2cc(C(C)(C)C)sc2C(=O)N2CCNC(=O)C2(C)C)cc1-c1ccc(N2CCOCC2)cn1
< 100	Cc1ccc(NC(=O)Nc2cn(C(C)(C)C)nc2C(=O)N2CCNC(=O)C2(C)C)cc1-c1ccc(N2CCOCC2)nc1
< 100	CCOc1ccc(-c2cc(NC(=O)Nc3cn(C(C)(C)C)nc3C(=O)N3CCN(C)C(=O)C3(C)C)ccc2C)cn1
< 100	CCc1ccc(-c2cc(NC(=O)Nc3sc(C(C)(C)C)cc3C(=O)N3CCN(C)C(=O)C3(C)C)ccc2C)nc1
< 100	CCN(CC)Cc1ccc(-c2cc(NC(=O)Nc3sc(C(C)(C)C)cc3C(=O)N3CCN(C)C(=O)C3(C)C)ccc2C)cn1
< 100	Cc1ccc(NC(=O)Nc2cc(C(C)(C)C)sc2C(=O)N2CCNC(=O)C2(C)C)cc1-c1ccc(CN2CCOCC2)nc1
< 100	COc1ccc(-c2cc(NC(=O)Nc3cc(C(C)(C)C)sc3C(=O)N3CCN(CCO)C(=O)C3(C)C)ccc2C)cn1
< 100	CCNC(=O)c1ccc(-c2cc(NC(=O)Nc3sc(C(C)(C)C)cc3C(=O)N3CCNC(=O)C3(C)C)ccc2C)cn1
< 100	Cc1ccc(NC(=O)Nc2sc(C(C)(C)C)cc2C(=O)N2CCNC(=O)C2(C)C)cc1-c1ccc(C(C)C)nc1
< 100	Cc1ccc(NC(=O)Nc2cc(C(C)(C)C)oc2C(=O)N2CCNC(=O)C2(C)C)cc1-c1ccc(OCCN(C)C)nc1
< 100	COc1ccc(-c2ccc(C)c(NC(=O)Nc3sc(C(C)(C)C)cc3C(=O)N3CCNC(=O)C3(C)C)c2)cn1
< 100	Cc1ccc(NC(=O)Nc2sc(C(C)(C)C)cc2C(=O)N2CCNC(=O)C2(C)C)cc1-c1ccccn1
< 100	CCc1ccc(-c2cc(NC(=O)Nc3cn(C(C)(C)C)nc3C(=O)N3CCN(C)C(=O)C3(C)C)cc(F)c2C)cn1
< 100	Cc1ccc(NC(=O)Nc2sc(C(C)(C)C)cc2C(=O)N2CCNC(=O)C2(C)C)cc1-c1ccc(OCCCN2CCN(C)CC2)nc1
< 100	Cc1ccc(NC(=O)Nc2sc(C(C)(C)C)cc2C(=O)N2CCN(C)C(=O)C2(C)C)cc1-c1ccc(C(C)O)nc1 (centres undefined)
